In patent US20250296909A1, “NOVEL BENZENE DERIVATIVE AND IMMUNOSUPPRESSION-RELATED USE THEREOF” (PROVIBIO CO., LTD., priority 2021, published 2025):
Like-named read-outs stand apart in the source and are kept apart here.

Legend:
[1] = tested on: spleen T cells; assay: T cell proliferation inhibition (CFSE, FACS), CD3/CD28-activated spleen T cells; type: cell-based, C57BL/6 mice; conditions: for inhibition at 10 µM / inhibition at 30 µM / inhibition at 50 µM: Mus musculus, T-cell, read-out: Proliferation inhibition rate (%)
Method: To investigate whether the compounds obtained in the Preparation Example have an inhibitory effect on T cell proliferation, the T cell proliferation was determined ex vivo using the fluorescent dye carboxyfluorescein diacetate succinimidyl ester (CFSE), which binds to intracellular molecules by covalent bonds.
Spleens were harvested and minced from C57BL/6 mice at 7 weeks of age, and then single cells were isolated using a strainer (40 μm pore size, SPL). Red blood cells were removed using ACK (Ammonium-Chloride-Potassium) lysis buffer to isolate only leukocytes. Subsequently, CD90.2 microbeads (130-121-278, Miltenyi Biotech.) were added, and subjected to react at 4° C. for 20 minutes. After that, spleen T cells were isolated using a MACS Magnetic Stand and LS column. The isolated T cells from the spleen were resuspended in 1 mL of Free media (RPMI-1640+200 U/mL penicillin+200 μg/mL streptomycin), followed by the addition of 0.3 μL of CFSE (10 mM), and reacted at 37° C. for 5 minutes. Subsequently, 10 mL of Free media was added to stop the reaction, and the cells were centrifuged to obtain the cell pellet. RPMI 1640 medium containing 10% FBS, 100 U/mL penicillin, and 100 μg/mL streptomycin was added to suspend the cells, and 2×10^5 cells per well were seeded into a 96-well plate and T cells were activated by treatment with CD3 and CD28 antibodies (each at 0.5 μg/mL).
The compound diluted in DMSO was treated in triplicate at concentrations of 10 μM, 30 μM, and 50 μM, respectively. After incubation at 37° C. with 5% CO2 for 3 days, cell proliferation levels were determined using a FACS Canto machine.
In the FACS graph of FIG. 1, the y-axis represents the quantity (number) of cells, while the x-axis represents the fluorescence level of the cells. […] This reduction in CFSE fluorescence results in a leftward shift along the x-axis in the graph. This indicates cell proliferation.
To collectively indicate the proliferation inhibition rate for the experimental results, the relative value of the proliferation amount after compound administration to the proliferation amount after CD3/CD28+DMSO administration was calculated. Subsequently, it was converted into an inhibition amount and expressed as a percentage, thereby determining the proliferation inhibition rate. Specifically, the proliferation inhibition rate was calculated as follows: […]

[2] = tested on: T lymphocyte cell line Jurkat E6-1; assay: Cytotoxicity experiment (CCK-8, relative cell survival); type: cell-based; conditions: 24 hours, untreated cells = 100%
Method: To evaluate the cytotoxicity of the compound according to the present invention, the following experiment was conducted.
The T lymphocyte cell line Jurkat E6-1, purchased from the Korean Cell Line Bank, was cultured in RPMI-1640 medium comprising 10% FBS, 100 U/mL penicillin, and 100 μg/mL streptomycin. After culturing, the cells were harvested and centrifuged at 1,300 rpm for 5 minutes. After removal of the supernatant, the cells were resuspended in the same medium at a concentration of approximately 2.2×10^5 cells/mL, and 90 μL of the cell suspension was distributed per well into a 96-well plate (Costar 96 well cell culture plate, Corning). After treating 10 μL of each compound at different concentrations onto the respective wells of the plate, it was cultured for 24 hours at 37° C. in a 5% CO2 incubator. Subsequently, 10 μL of CCK-8 was added to each well, and it was cultured again for 2 hours at 37° C. in a 5% CO2 incubator. Absorbance was then measured at 450 nm to determine the relative cell survival rate compared to untreated cells, as shown in Table 4.
The values listed in Table 4 represent the relative cell survival rates in the groups treated with each compound at different concentrations, with the cell survival rate of untreated cells set as 100%.

[3] = 72 h, Table 2, 10 μM, 3 days, relative to CD3/CD28+DMSO
[4] = 72 h, Table 2, 30 μM, 3 days, relative to CD3/CD28+DMSO
[5] = 72 h, Table 2, 50 μM, 3 days, relative to CD3/CD28+DMSO
[6] = Table 3 (compounds not belonging to Formula 1), 10 μM
[7] = Table 3 (compounds not belonging to Formula 1), 30 μM
[8] = Table 3 (compounds not belonging to Formula 1), 50 μM
[9] = Table 2, 10 μM, 3 days, relative to CD3/CD28+DMSO
[10] = Table 2, 30 μM, 3 days, relative to CD3/CD28+DMSO
[11] = Table 2, 50 μM, 3 days, relative to CD3/CD28+DMSO

Row | Compound | inhibition at 10 µM [1, 3] [%] | inhibition at 30 µM [1, 4] [%] | inhibition at 50 µM [1, 5] [%] | Relative cell survival rate (%) ([2]; 10 μM) | Relative cell survival rate (%) ([2]; 20 μM) | Relative cell survival rate (%) ([2]; 30 μM) | Relative cell survival rate (%) ([2]; 50 μM) | other results
1 | C=Cc1ccccc1C(=O)NCCCCCCCCCCCC [Compound 57] | 93 | 100 | 100 | 108 | 108 | 104 | 101 | –
2 | CCCCCCCCCCCCNC(=O)c1ccccc1C(=O)c1ccc(Cl)cc1 [Compound 16] | 0 | 100 | 100 | 121 | 101 | 92 | 85 | –
3 | O=C(NCCCc1ccccc1)c1ccccc1Br [Compound 4] | – | – | – | – | – | – | – | inhibition at 10 µM [1, 6]: 23%; inhibition at 30 µM [1, 7]: 12%; inhibition at 50 µM [1, 8]: 16%
4 | CCCCCCCCCCCCNC(=O)c1ncc(F)cc1F [Compound 34] | 6 | 43 | 87 | 112 | 109 | 101 | 87 | –
5 | CCCCCCCCCCCC(=O)NCc1ccccc1Br [Compound 43] | 27 | 50 | 72 | 101 | 104 | 108 | 108 | –
6 | CCCCCCCCCCCCNS(=O)(=O)c1ccccc1F [Compound 45] | – | – | – | 96 | 94 | 76 | 74 | Proliferation inhibition rate (%) [1, 9]: 30%; Proliferation inhibition rate (%) [1, 10]: 59%; Proliferation inhibition rate (%) [1, 11]: 97%
7 | CCCCCC(=O)Nc1ccccc1CNC(=O)c1ccccc1Br [Compound 48] | – | – | – | 100 | 99 | 99 | 98 | –
8 | CCCCCCCCCCCCNC(=O)c1ccc(F)c(F)c1F [Compound 55] | 52 | 82 | 95 | 115 | 110 | 108 | 105 | –
9 | O=C(NCCCCCCCCCC1CO1)c1ccccc1Br (stereo not shown) [Compound 17] | – | – | – | 106 | 80 | 80 | 66 | –
10 | CCCCCCCCCCCCNC(=O)c1ncccc1Cl [Compound 11] | 10 | 62 | 99 | – | – | – | – | –
11 | CCCCCCCCCCC(CNCc1ccccc1Br)Cc1ccccc1Br (stereo not shown) [Compound 44] | – | – | – | 100 | 98 | 94 | 93 | –
12 | CCCCCCCCCCCCNC(=O)c1cc(Cl)cc(Cl)c1O [Compound 28] | 11 | 47 | 91 | – | – | – | – | –
13 | CCCCCCCCCCCCNC(=O)c1cccnc1SC [Compound 24] | – | – | – | 71 | 68 | 61 | 54 | –
14 | O=C(Nc1ccccc1Br)c1ccccc1Br [Compound 9] | – | – | – | – | – | – | – | inhibition at 10 µM [1, 6]: 0%; inhibition at 30 µM [1, 7]: 0%; inhibition at 50 µM [1, 8]: 0%; cell proliferation read by FACS (FIG. 2) ([1]; even at a concentration of 50 μM): no inhibition of cell proliferation
15 | CCCCCCCCCCCCNC(=O)c1ccc2cccc(O)c2n1 [Compound 21] | – | – | – | 101 | 106 | 109 | 124 | –
16 | CCCCCCCCCCCCNC(=O)c1ccc(Cl)cc1Cl [Compound 60] | 10 | 72 | 98 | – | – | – | – | –

Row | Compound | inhibition at 10 µM [1, 3] [%] | inhibition at 30 µM [1, 4] [%] | inhibition at 50 µM [1, 5] [%] | Relative cell survival rate (%) ([2]; 10 μM) | Relative cell survival rate (%) ([2]; 20 μM) | Relative cell survival rate (%) ([2]; 30 μM) | Relative cell survival rate (%) ([2]; 50 μM) | other results
17 | Cc1ccccc1NC(=O)c1ccccc1F [Compound 3] | – | – | – | – | – | – | – | inhibition at 10 µM [1, 6]: 9%; inhibition at 30 µM [1, 7]: 15%; inhibition at 50 µM [1, 8]: 18%
18 | CCCCCCCCCCCCNS(=O)(=O)c1ccccc1N [Compound 46] | – | – | – | – | – | – | – | Proliferation inhibition rate (%) [1, 9]: 47%; Proliferation inhibition rate (%) [1, 10]: 94%; Proliferation inhibition rate (%) [1, 11]: 93%
19 | CCCCCCCCCCCCNC(=O)c1ccc2ccccc2n1 [Compound 22] | – | – | – | 42 | 42 | 39 | 36 | –
20 | Cc1ccccc1NC(=O)c1ccccc1Br [Compound 2] | – | – | – | – | – | – | – | inhibition at 10 µM [1, 6]: 11%; inhibition at 30 µM [1, 7]: 10%; inhibition at 50 µM [1, 8]: 11%
21 | CCCCCCCCCCCCNC(=O)c1cccnc1OC [Compound 32] | 12 | 42 | 54 | – | – | – | – | –
22 | CCCCCC(=O)Nc1ccc(CNC(=O)c2ccccc2Br)cc1 [Compound 47] | – | – | – | 98 | 97 | 97 | 96 | –
23 | CCCCCCCCCCCCNC(=O)c1ncccn1 [Compound 79] | 46 | 88 | 100 | – | – | – | – | –
24 | CCCCCCCCCCCCNC(=O)c1cccnc1S [Compound 80] | – | – | – | – | – | – | – | Proliferation inhibition rate (%) [1, 9]: 43%; Proliferation inhibition rate (%) [1, 10]: 100%; Proliferation inhibition rate (%) [1, 11]: 100%
25 | CCCCCCCCCCCC(=O)Nc1ccccc1Br [Compound 42] | – | – | – | 110 | 109 | 104 | 103 | –
26 | O=C(Nc1ccccc1)c1ccncc1Br [Compound 1] | – | – | – | – | – | – | – | inhibition at 10 µM [1, 6]: 9%; inhibition at 30 µM [1, 7]: 6%; inhibition at 50 µM [1, 8]: 7%
27 | CCCCCCCCCCCCNC(=O)c1cccc2ccccc12 [Compound 18] | – | – | – | 102 | 101 | 99 | 99 | –
28 | CCCCCC(=O)Nc1cccc(CNC(=O)c2ccccc2Br)c1 [Compound 49] | – | – | – | 98 | 98 | 98 | 98 | –
29 | CCCCCCCCCCCCNC(=O)c1nccc2ccccc12 [Compound 20] | – | – | – | 113 | 108 | 107 | 105 | –
30 | CCCCCCCCCCCCNC(=O)c1ccnc(C)c1 [Compound 15] | 10 | 35 | 90 | – | – | – | – | –
31 | CCCCCCCCCCCCNC(=O)c1cc2ccccc2cc1N [Compound 23] | – | – | – | 66 | 62 | 62 | 54 | –
32 | CCCCCCCCCCCCNS(=O)(=O)c1cnccc1O [Compound 72] | 68 | 80 | 86 | – | – | – | – | –
